Assay results as given in patent US5705524A, “Thiepane compounds” (Gilead Sciences, Inc., priority 1995, dated 1998).
Read-outs that look alike come from different tables or passages of the source.

Experiments:
HIV protease = molecular target: T1, HIV protease (Human immunodeficiency virus type 1 group M subtype B, UniProt P04585); assay: biochemical
T1 construct: measurement of HIV-protease (HIV-PR) activity
Procedure: Compositions to be subjected to enzyme assay are lyophilited and diluted in DMSO to 100-1000 μM. Compositions having apparent IC50 <1 μm are diluted to 100 μM.
The assay is a fluorometric method for measurement of HIV-protease (HIV-PR) activity utilizing a synthetic peptide substrate for HIV-PR based on that described by Matayoshi, E. D.; Wang, G. T.; Krafft, G. A.; and Erickson, J. W.; Science, 1990, 247, 954-958; and Wang, G. T.; Huffker, J. A.; Matayoshi, E.; and Krafft, G. A.; Tetrahedron Lett., 1990, 165, 6493-6496.
1.0 mM ethylenediaminetetraacetic acid (EDTA)
1.0 mM dithiothreitol (DTT)
10% dimethyl sulfoxide (DMSO)
1 mg/mL bovine serum albumin (BSA) adjusted to pH 4.7
1. Prepare a solution of 2 μM HIV Protease Substrate 1 in the Assay Buffer.
2. Dispense the substrate solution into UV-pass fluorescence cuvettes (1 cm pathlength).
3. Set the excitation and emission monochromators of the spectrofluorimeter to 340 nm and 490 nm, respectively. To obtain the same kinetic constants as reported, cuvettes should be held at 37° C. throughout the assay.
4. Begin each assay by adding a small amount (<3% of the final volume) of HIV-PR-containing solution diluted tin the Assay Buffer.
5. Measure the initial rate of cleavage of fluorogenic substrate by monitoring the increase in fluorescence signal at 490 nm for 5-8 min at 37° C.
(§1) The apparent IC50 and IC50 values reported below in Table 25 were determined using the assays of Example 34 and 35, respectively. The values are indicated as follows: +=10-50 μM, ++2-10 μM, and +++<2 μM.

HIV IIIB = assay: XTT Cell Culture Assay, cells infected with HIV IIIB (Example 35); format: cell-based; settings: read-out: Cell Culture IC50
Procedure: The method of Weislow, O. S.; Kiser, R.; Fine, D. L.; Bader, J.; Shoemaker, R. H.; and Boyd, M. R.; J. Nat. Cancer Institute, 1989, 81(8) 577-586 was applied with the following minor modifications: Infection of cells with HIV IIIB was performed without polybrene. Cells were distributed to Microtiter wells containing the compound of the invention 4 h after infection with HIV IIIB. 2×XTT was added at 5-6 days post infection. 20 μl 2% Triton X-100 was added 1 hour after XTT addition.
1. Add 4 ml of XTT (5 mg/ml) to 8 ml of Deficient RPMI medium (no phenol red, no serum). Mix briefly at 45° C. to dissolve XTT.
2. Add 800 μl of PMS (0.2 mg/ml) to XTT/RPMI mixture.
3. Remove 100 μl of cell free media from each well of a 96 well plate and replace with 100 μl of the XTT/PMS mixture.
4. Incubate at 37° C. for 1.5-2 h.
5. Read absorbance at 450 nm. Absorbance values are directly proportional to cell viability.
as §1

[1] = fluorogenic peptide substrate, 37° C., pH 4.7, read-out: Apparent Enzyme IC50
[2] = Human immunodeficiency virus 1, IIIB, HIV IIIB infected cells, XTT at 5-6 days post infection
[3] = HIV IIIB infected cells, XTT at 5-6 days post infection
[4] = Apparent Enzyme IC50, fluorogenic peptide substrate, 37° C., pH 4.7
[5] = Human immunodeficiency virus 1, IIIB

Row | SMILES | IC50 (HIV protease; [1]) [nM] | IC50 (HIV IIIB; [2]) [nM] | other results
1 | [O-][S@+]1C[C@H](OCc2ccccc2)[C@H](O)[C@@H](O)[C@@H](OCc2ccccc2)[C@H]1Cc1ccccc1 [107/3] | 2000 to 10000 | – | –
2 | O=S1(=O)C[C@H](OCc2ccccc2)[C@H](O)[C@@H](O)[C@@H](OCc2ccccc2)[C@H]1Cc1ccccc1 [107/5] | < 2000 | 10000 to 50000 | –
3 | N#Cc1ccc(O[C@@H]2[C@H](O)[C@@H](O)[C@@H](Oc3ccc(C#N)cc3)CS[C@@H]2Cc2ccccc2)cc1 [107/12] | 2000 to 10000 | – | –
4 | N#Cc1ccc(O[C@@H]2[C@H](O)[C@@H](O)[C@@H](Oc3ccc(C#N)cc3)CS(=O)(=O)[C@@H]2Cc2ccccc2)cc1 [107/15] | 2000 to 10000 | – | –
5 | [O-][S+]1[C@H](Cc2ccccc2)[C@H](OCc2ccccc2)[C@H](O)[C@@H](O)[C@@H](OCc2ccccc2)[C@H]1Cc1ccccc1 (stereo partly shown) [108/4] | < 2000 | – | IC50 (HIV IIIB; [3]): < 2000 nM
6 | [O-][S@@+]1[C@H](Cc2ccccc2)[C@H](OCc2ccccc2)[C@H](O)[C@@H](O)[C@@H](OCc2ccccc2)[C@@H]1Cc1ccccc1 [108/17] | 2000 to 10000 | 2000 to 10000 | –
7 | O=S1(=O)[C@H](Cc2ccccc2)[C@H](OCc2ccccc2)[C@H](O)[C@@H](O)[C@@H](OCc2ccccc2)[C@@H]1Cc1ccccc1 [108/18] | < 2000 | 10000 to 50000 | –
8 | O=S1(=O)[C@@H](Cc2ccccc2)[C@@H](OCc2ccccc2)[C@@H](O)[C@H](O)[C@H](OCc2ccccc2)[C@@H]1Cc1ccccc1 [108/27] | 10000 to 50000 | 10000 to 50000 | –
9 | [O-][S+]1[C@H](Cc2ccccc2)[C@H](OCc2ccccc2)[C@H](O)[C@@H](O)[C@@H](OCc2ccccc2)[C@H]1Cc1ccccc1 (stereo partly shown) [120/3] | < 2000 | – | IC50 (HIV IIIB; [3]): 10000 to 50000 nM
10 | CC1(C)O[C@@H]2[C@@H](O1)[C@@H](OCc1cccc[n+]1[O-])[C@@H](Cc1ccccc1)S(=O)(=O)[C@H](Cc1ccccc1)[C@@H]2OCc1ccccn1 [120/7] | < 2000 | 2000 to 10000 | –
11 | O=S1(=O)[C@H](Cc2ccccc2)[C@H](OCc2cccc(Br)c2)[C@H](O)[C@@H](O)[C@@H](OCc2cccc(Br)c2)[C@H]1Cc1ccccc1 [120/37] | < 2000 | – | –
12 | O=S1(=O)[C@H](Cc2ccccc2)[C@H](OCc2cccc(O)c2)[C@H](O)[C@@H](O)[C@@H](OCc2cccc(O)c2)[C@H]1Cc1ccccc1 [120/41] | < 2000 | – | –
13 | O=[N+]([O-])c1cccc(CO[C@@H]2[C@H](O)[C@@H](O)[C@@H](OCc3cccc([N+](=O)[O-])c3)[C@@H](Cc3ccccc3)[S+]([O-])[C@@H]2Cc2ccccc2)c1 (stereo partly shown) [120/44] | – | – | IC50 (HIV protease; [4]): < 2000 nM; IC50 (HIV IIIB; [5]): < 2000 nM
14 | O=[N+]([O-])c1cccc(CO[C@@H]2[C@H](O)[C@@H](O)[C@@H](OCc3cccc([N+](=O)[O-])c3)[C@@H](Cc3ccccc3)S(=O)(=O)[C@@H]2Cc2ccccc2)c1 [120/45] | – | – | IC50 (HIV protease; [4]): < 2000 nM; IC50 (HIV IIIB; [5]): < 2000 nM

Now from value to molecule, other results behind:

Row | IC50 (HIV protease; [1]) [nM] | IC50 (HIV IIIB; [2]) [nM] | SMILES | other results
15 | 10000 to 50000 | – | O[C@@H]1[C@@H](O)[C@@H](OCc2ccccc2)CS[C@H](Cc2ccccc2)[C@@H]1OCc1ccccc1 [107/2] | –
16 | 2000 to 10000 | 10000 to 50000 | [O-][S@@+]1C[C@H](OCc2ccccc2)[C@H](O)[C@@H](O)[C@@H](OCc2ccccc2)[C@H]1Cc1ccccc1 [107/4] | –
17 | 2000 to 10000 | – | N#Cc1ccccc1O[C@@H]1[C@H](O)[C@@H](O)[C@@H](Oc2ccccc2C#N)CS(=O)(=O)[C@@H]1Cc1ccccc1 [107/10] | –
18 | – | < 2000 | O=S1(=O)[C@H](Cc2ccccc2)[C@H](OCc2ccccc2)[C@H](O)[C@@H](O)[C@@H](OCc2ccccc2)[C@H]1Cc1ccccc1 [108/5] | –
19 | < 2000 | < 2000 | O=S1(=O)[C@H](Cc2ccccc2)[C@H](OCc2ccccc2)[C@H](O)[C@@H](O)[C@H](OCc2ccccc2)[C@H]1Cc1ccccc1 [108/21] | –
20 | < 2000 | 2000 to 10000 | CC1(C)O[C@@H]2[C@@H](O1)[C@@H](OCc1ccccn1)[C@@H](Cc1ccccc1)S(=O)(=O)[C@H](Cc1ccccc1)[C@@H]2OCc1ccccn1 [120/6] | –
21 | < 2000 | < 2000 | O=S1(=O)[C@H](Cc2ccccc2)[C@H](OCc2cccnc2)[C@H](O)[C@@H](O)[C@@H](OCc2cccnc2)[C@H]1Cc1ccccc1 [120/15] | –
22 | < 2000 | < 2000 | O=S1(=O)[C@H](Cc2ccccc2)[C@H](OCc2cccnc2)[C@H](O)[C@@H](O)[C@@H](OCc2ccc[n+]([O-])c2)[C@H]1Cc1ccccc1 [120/16] | –
23 | < 2000 | – | O=S1(=O)[C@H](Cc2ccccc2)[C@H](OCc2ccncc2)[C@H](O)[C@@H](O)[C@@H](OCc2ccncc2)[C@H]1Cc1ccccc1 [120/19] | –
24 | < 2000 | 10000 to 50000 | Cc1nc(CO[C@@H]2[C@H](O)[C@@H](O)[C@@H](OCc3csc(C)n3)[C@@H](Cc3ccccc3)S(=O)(=O)[C@@H]2Cc2ccccc2)cs1 [120/22] | –
25 | – | < 2000 | O=S1(=O)[C@H](Cc2ccccc2)[C@H](OCc2cncs2)[C@H](O)[C@@H](O)[C@@H](OCc2cncs2)[C@H]1Cc1ccccc1 [120/25] | IC50 (HIV protease; read-out: Apparent Enzyme IC50): < 2000 nM
26 | < 2000 | – | O=S1(=O)[C@H](Cc2ccccc2)[C@H](Oc2ccccn2)[C@H](O)[C@@H](O)[C@@H](Oc2ccccn2)[C@H]1Cc1ccccc1 [120/28] | –
27 | < 2000 | < 2000 | Cc1cccc(CO[C@@H]2[C@H](O)[C@@H](O)[C@@H](OCc3cccc(C)c3)[C@@H](Cc3ccccc3)S(=O)(=O)[C@@H]2Cc2ccccc2)c1 [120/31] | –
28 | < 2000 | < 2000 | COc1cccc(CO[C@@H]2[C@H](O)[C@@H](O)[C@@H](OCc3cccc(OC)c3)[C@@H](Cc3ccccc3)S(=O)(=O)[C@@H]2Cc2ccccc2)c1 [120/34] | –
29 | < 2000 | – | O=S1(=O)[C@H](Cc2ccccc2)[C@H](OCc2cccc(OCc3ccccc3)c2)[C@H](O)[C@@H](O)[C@@H](OCc2cccc(OCc3ccccc3)c2)[C@H]1Cc1ccccc1 [120/40] | –
30 | < 2000 | < 2000 | Nc1cccc(CO[C@@H]2[C@H](O)[C@@H](O)[C@@H](OCc3cccc(N)c3)[C@@H](Cc3ccccc3)S(=O)(=O)[C@@H]2Cc2ccccc2)c1 [120/46] | –
